According to ChEMBL document CHEMBL5634101, “Discovery of NLRP3 inhibitors using machine learning: Identification of a hit compound to treat NLRP3 activation-driven diseases” (Eur J Med Chem, 2023):
pIC50: −log10 of the molar value.

Key:
[1] = Stability in human liver microsomes assessed as intrinsic clearance at 1.5 uM measured upto 45 mins in presence of NADPH by LC-MS/MS analysis; format: ADME, Microsome; conditions: read-out: CLH
[2] = Stability in human liver microsomes assessed as half-life at 1.5 uM measured upto 45 mins in presence of NADPH by LC-MS/MS analysis; format: ADME, Microsome
[3] = molecular target: NACHT, LRR and PYD domains-containing protein 3 (Homo sapiens, UniProt Q96P20); test: Inhibition of NLRP3 inflammasome activation in PMA-differentiated human THP-1 cells assessed as reduction in IL-1beta secretion pre-stimulated with PMA for 24 hrs followed by compound addition and measured after 30 mins by ELISA; format: cell-based
NACHT, LRR and PYD domains-containing protein 3, sequence (Q96P20 whole entry, the tested form may be a part): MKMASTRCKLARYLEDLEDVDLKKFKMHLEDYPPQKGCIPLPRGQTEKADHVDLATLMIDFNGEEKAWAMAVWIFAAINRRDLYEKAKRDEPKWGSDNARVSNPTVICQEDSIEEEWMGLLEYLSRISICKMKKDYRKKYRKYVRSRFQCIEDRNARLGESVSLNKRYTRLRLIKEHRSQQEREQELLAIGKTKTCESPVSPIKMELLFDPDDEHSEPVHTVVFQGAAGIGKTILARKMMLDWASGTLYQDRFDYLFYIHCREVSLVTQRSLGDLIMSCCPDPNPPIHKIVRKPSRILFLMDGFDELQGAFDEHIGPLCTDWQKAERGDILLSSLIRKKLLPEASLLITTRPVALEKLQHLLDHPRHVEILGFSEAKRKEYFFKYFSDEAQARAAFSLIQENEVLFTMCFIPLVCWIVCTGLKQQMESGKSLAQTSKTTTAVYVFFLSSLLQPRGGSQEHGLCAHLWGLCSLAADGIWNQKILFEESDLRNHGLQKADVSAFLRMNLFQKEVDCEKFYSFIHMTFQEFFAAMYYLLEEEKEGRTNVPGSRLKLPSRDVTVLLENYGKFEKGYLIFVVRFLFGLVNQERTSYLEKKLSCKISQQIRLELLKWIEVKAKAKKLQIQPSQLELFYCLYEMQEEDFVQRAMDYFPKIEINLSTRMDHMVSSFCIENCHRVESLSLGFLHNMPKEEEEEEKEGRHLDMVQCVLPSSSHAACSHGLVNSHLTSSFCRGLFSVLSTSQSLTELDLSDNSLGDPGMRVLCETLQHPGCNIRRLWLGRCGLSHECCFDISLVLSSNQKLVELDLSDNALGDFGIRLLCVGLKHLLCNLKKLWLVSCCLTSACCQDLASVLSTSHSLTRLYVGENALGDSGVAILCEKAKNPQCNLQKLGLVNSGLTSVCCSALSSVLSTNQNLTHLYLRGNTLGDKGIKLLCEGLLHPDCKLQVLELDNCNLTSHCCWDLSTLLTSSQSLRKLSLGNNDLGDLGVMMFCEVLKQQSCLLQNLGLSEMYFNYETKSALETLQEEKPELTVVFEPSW

SMILES | CLint scaled at 1.5 µM [1] | half-life at 1.5 µM [2] | pIC50 [3]
O=C(c1ccc(F)cc1)C1CCN(CCn2c(=O)[nH]c3ccccc3c2=O)CC1 [KETANSERIN] | 17.3 mL/min/kg | 1.68 h | –
O=C(O)CCCCCN1C(=O)/C(=C/c2c[nH]c3ccccc23)SC1=S | – | – | 4.86
